The record followed here is publication PMC10829540, “Natural transaminase fusions for biocatalysis” (RSC Advances, 2024).

As usually defined, the kcat is the maximal rate divided by the concentration of active sites.

The target in one series is T1, PpKTFusion (Pseudomonas putida, UniProt Q88J67).
T1 construct: gene PP_2782; full-length fusion (N-terminal TAm 1-526, linker 527-562, C-terminal reductase 563-959); N-terminal His6-tag, pET-28a(+), E. coli
T1 sequence (Q88J67 1-959): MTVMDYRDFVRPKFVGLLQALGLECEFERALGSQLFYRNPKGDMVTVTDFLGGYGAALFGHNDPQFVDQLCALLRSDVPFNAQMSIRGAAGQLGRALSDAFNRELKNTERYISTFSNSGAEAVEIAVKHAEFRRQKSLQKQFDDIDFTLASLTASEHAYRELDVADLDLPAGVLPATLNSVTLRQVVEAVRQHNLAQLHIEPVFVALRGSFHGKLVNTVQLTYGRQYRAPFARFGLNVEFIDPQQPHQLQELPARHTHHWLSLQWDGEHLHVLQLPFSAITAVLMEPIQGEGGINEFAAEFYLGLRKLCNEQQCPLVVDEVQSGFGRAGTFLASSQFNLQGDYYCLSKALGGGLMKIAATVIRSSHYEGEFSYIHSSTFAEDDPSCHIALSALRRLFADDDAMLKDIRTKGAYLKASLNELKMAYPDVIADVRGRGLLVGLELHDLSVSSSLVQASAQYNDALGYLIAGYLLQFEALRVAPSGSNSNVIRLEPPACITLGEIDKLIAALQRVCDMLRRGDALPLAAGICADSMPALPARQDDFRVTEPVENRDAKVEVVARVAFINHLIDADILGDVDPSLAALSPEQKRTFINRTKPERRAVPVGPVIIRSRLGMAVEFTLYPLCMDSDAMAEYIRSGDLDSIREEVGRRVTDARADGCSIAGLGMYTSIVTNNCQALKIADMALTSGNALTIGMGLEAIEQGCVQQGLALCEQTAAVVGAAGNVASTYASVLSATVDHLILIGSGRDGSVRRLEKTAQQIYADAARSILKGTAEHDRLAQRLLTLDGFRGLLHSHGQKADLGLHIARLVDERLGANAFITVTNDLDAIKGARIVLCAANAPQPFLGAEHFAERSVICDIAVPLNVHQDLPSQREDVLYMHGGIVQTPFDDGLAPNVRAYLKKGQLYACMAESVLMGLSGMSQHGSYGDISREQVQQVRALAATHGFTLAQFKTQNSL
Kind of series: HPLC conversion of […] to […], non-linear regression to substrate inhibition equation. As to conditions: apparent, amine donor L-glutamate, 1.0 mM PLP, HEPES pH 7.7, 10% DMSO, 30 °C (conditions of Fig. 7F). Format: biochemical.

The next series has as its target T2, TfFusion (Thermincola carboxydiphila, UniProt A0A0L6W1G2).
T2 construct: gene Tfer_2018; full-length fusion; N-terminal His6-tag, pET-28a(+), E. coli
The description is as above. Format: biochemical. The following applies: apparent, amine donor L-glutamate, 1.0 mM PLP, HEPES pH 7.7, 10% DMSO, 50 °C (conditions of Fig. 7F).

For another series, the target named is T3, PpKTTAm (Pseudomonas putida, UniProt Q88J67).
T3 construct: gene PP_2782; truncated to N-terminal TAm domain (assigned residues 1-526); N-terminal His6-tag, pET-28a(+), E. coli
T3 sequence (Q88J67 1-526): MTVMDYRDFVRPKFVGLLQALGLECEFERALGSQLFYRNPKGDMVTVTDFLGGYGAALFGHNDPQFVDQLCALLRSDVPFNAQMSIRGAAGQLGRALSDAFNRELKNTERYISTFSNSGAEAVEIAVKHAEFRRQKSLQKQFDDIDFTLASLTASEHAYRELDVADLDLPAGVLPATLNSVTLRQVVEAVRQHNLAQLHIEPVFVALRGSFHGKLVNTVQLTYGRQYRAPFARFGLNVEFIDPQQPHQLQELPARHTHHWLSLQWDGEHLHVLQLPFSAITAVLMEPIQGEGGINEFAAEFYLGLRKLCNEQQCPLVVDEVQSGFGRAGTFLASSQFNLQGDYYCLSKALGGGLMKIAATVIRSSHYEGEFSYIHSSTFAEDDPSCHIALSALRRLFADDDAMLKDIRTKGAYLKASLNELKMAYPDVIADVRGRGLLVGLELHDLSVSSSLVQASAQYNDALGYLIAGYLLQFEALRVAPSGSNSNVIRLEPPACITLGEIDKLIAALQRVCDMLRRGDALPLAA
The description is as above. The class given is biochemical. As to conditions: apparent, amine donor L-glutamate, 1.0 mM PLP, HEPES pH 7.7, 10% DMSO, 30 °C (conditions of Fig. 7F).

The target of another series is T4, TfTAm (Thermincola carboxydiphila, UniProt A0A0L6W1G2).
T4 construct: gene Tfer_2018; truncated to N-terminal TAm domain (borders only in ESI); N-terminal His6-tag, pET-28a(+), E. coli
Kind of series: HPLC conversion of […] to […], non-linear regression. The class given is biochemical. As to conditions: apparent; amine acceptor 3-phenylpropionaldehyde (10 mM), 1.0 mM PLP, HEPES pH 7.7, 10% DMSO, 50 °C (conditions of Fig. 7E); read-out: K ^app m.

Substrate in series [1]: N[C@@H](CCC(=O)O)C(=O)O
Kind of series: purified protein. Format: biochemical, Thermincola carboxydiphila. The following applies: apparent, amine acceptor 3-phenylpropionaldehyde (10 mM), 1.0 mM PLP, HEPES pH 7.7, 10% DMSO, 50 °C (conditions of Fig. 7E).

Substrate in series [2]: O=CCCc1ccccc1
Kind of series: purified protein. The class given is biochemical, Thermincola carboxydiphila. As to conditions: apparent, amine donor L-glutamate, 1.0 mM PLP, HEPES pH 7.7, 10% DMSO, 50 °C (conditions of Fig. 7F).

Take `O=CCCc1ccccc1` [compound 13, 3-phenylpropionaldehyde]: the “K ^app i” value on PpKTFusion came to 3.37 µM; on TfFusion, 52.92 µM; on PpKTTAm, 5.13 µM.
As for `N[C@@H](CCC(=O)O)C(=O)O` [compound 36, L-glutamate], the Km at TfTAm stood at 9.57 mM.

B1: TfFusion (Thermincola carboxydiphila) (protein)
chain: MKFSSLNPTMDKLFECFKLDVAYVKGEGTYLYDQAGNKYLDFIAQYGAVPFGYNPPELVAAAKKYFDLSLPSMVQPSIPVKAVELAEMLLQLAPGEMAQATFCQSGAEAVEVAIKLARSTTGKPKILSTKNSFHGKTMGALSATGRDVYQKPFFTPVPGFEHIPFGDLDMLENKMRTEGKQIAAFLVEPIQGEGGIIVPPEGYLKNAEIICRKYGVLLAVDEIQTGLGRTGELFACDREGVEPDILLLSKALGGGLVPLGVCLSTRQAWNEEFGRLHSSTFANNNFTCAIGLAVLNKLLENGRQLINNAKSAGNYLLKNLEDINRQYPGVIKEIRGRGLMLGLEFNEFDGSESFSMKYLAEQGGFSPLLAGYLLNVHKVRVAPFLNNPMTLRLQPSLTVATVEIDRALHGLERVVKALYYQDHCELYSYIIGKEPGPIRDFRSEKKAVTGSELLPEEKPTEKFAFLIHYPSSEDVIKNNPSFKKASKDILEKLIDWEASLDAEPEVIVHLPAIKSKAGKIAEGWLIGIPYSGRHMMEMPRKDAVKVLVTALDKAKALGARIVGLGAYTSVVSRGGSDLQGKGIAVTSGNSYTIATAFDALIEGARLMGIDPAESTGCVIGATGSIGRVCAILLAEEIDKLVLVGNPEKEKTSLRRMEQLADEIYTRAFREILAYKGKVAKIKGIAKWLKGFLDRKRKDDPEVWNKLLTALENQGFSINGYIHENLAAKGKYSNPPVKITVNIKQALLQSDLIISASNSTNHLIGPGHLKPGSVICDVARPPDVSEAVLEQRKDVLVIEGGLVQYPDDICFGQNMGYEPGVNMACLSETMLLALEGTYRDFSIGLKIPVENVYYLRELAQRHGFKLATPWNKNGGVTPEVARMIKEAALKNENVEKIKTPKSS
notes: full-length fusion; N-terminal His6-tag, pET-28a(+), E. coli
As to B1, in “purified protein [1]”, the Km is given as 16.44 mM and the kcat was determined as 0.2672 s⁻¹. Besides, in “purified protein [2]”, the Km came out at 50.61 mM and the kcat was found to be 1.171 s⁻¹.
